# Literature values, collected in patent US11278511B2, “Sports health performance composition” (REV Pharmaceuticals, Inc., priority 2016, dated 2022).
# Like-named read-outs stand apart in the source and are kept apart here.
# Legend:
# [1] = test system: humans
# [2] = test system: urinary cGMP and nitrate excretion
# [3] = IV infusion or oral, doses 6 to 30 gm, humans
structure (smiles),measurement,setting,value
N=C(N)NCCC[C@H](N)C(=O)O [L-arginine],Cmax,6 gm IV,822 µM
same,Cmax,6 gm oral,310 µM
same,Cmax,30 gm IV,6220 µM
same,Half life,IV,1 h
same,Half life,PO,1.5 h
same,changes in hemodynamics,[1]; 6 gm doses,No significant changes
same,blood pressure,[1]; 30 gm IV,significantly decreased
same,total peripheral resistance,[1]; 30 gm IV,significantly decreased
same,endothelium-dependent vasodilation,[1]; [3],improved endothelium-dependent vasodilation
same,muscle blood flow,[1]; [3],improved muscle blood flow
same,peripheral vasodilation,[1]; [3],induced peripheral vasodilation
same,urinary cGMP excretion,[2]; 6 gm IV,significant increases
same,urinary nitrate excretion,[2]; 6 gm IV,significant increases
same,urinary cGMP excretion,[2]; 30 gm IV,significant increases
same,urinary nitrate excretion,[2]; 30 gm IV,significant increases
